Assay results: ChEMBL document CHEMBL2010679, “Development of a new class of aromatase inhibitors: design, synthesis and inhibitory activity of 3-phenylchroman-4-one (isoflavanone) derivatives” (Bioorg Med Chem, 2012); call rule not given here

target: T1, Aromatase (Homo sapiens, UniProt P11511); assay: Inhibition of human recombinant aromatase expressed in baculovirus/insect cells using 7-methoxy-trifluoromethylcoumarin as substrate after 30 mins by fluorescence-based spectrophotometry; settings: not given
T1 sequence (P11511 whole entry): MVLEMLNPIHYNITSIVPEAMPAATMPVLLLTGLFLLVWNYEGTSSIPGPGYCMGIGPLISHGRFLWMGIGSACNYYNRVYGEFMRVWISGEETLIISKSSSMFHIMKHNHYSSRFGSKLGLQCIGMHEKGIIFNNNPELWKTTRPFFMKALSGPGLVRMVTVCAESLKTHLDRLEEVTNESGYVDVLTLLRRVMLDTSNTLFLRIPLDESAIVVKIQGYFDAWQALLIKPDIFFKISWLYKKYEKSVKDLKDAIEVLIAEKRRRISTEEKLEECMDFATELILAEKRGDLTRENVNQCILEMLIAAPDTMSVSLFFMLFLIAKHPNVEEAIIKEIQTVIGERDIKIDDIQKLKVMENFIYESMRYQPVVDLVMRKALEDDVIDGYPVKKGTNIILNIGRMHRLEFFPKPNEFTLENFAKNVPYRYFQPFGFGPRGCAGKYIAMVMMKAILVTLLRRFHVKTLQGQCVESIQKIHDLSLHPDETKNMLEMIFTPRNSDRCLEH

| SMILES | IC50 |
| --- | --- |
| O=C1c2ccccc2OCC1c1cc2ccccc2c2ccccc12 (racemic) | Not Active |
| O=C1c2ccccc2OCC1c1ccc(-c2ccccc2)cc1 (racemic) | Not Active |

same assay, conditions: read-out: IC50

| SMILES | IC50 [µM] |
| --- | --- |
| COc1cccc(C2COc3ccccc3C2=O)c1 (racemic) | 99 |
| COc1ccc2c(c1)OCC(c1ccccc1)C2=O (racemic) | 41 |
| COc1ccc(C2COc3ccccc3C2=O)cc1 (racemic) | 24 |
| CC(C)(C)c1ccc2c(c1)C(=O)C(c1ccccc1)CO2 (racemic) | 61 |
| Cc1ccc2c(c1)C(=O)C(c1ccccc1)CO2 (racemic) | 44 |
| O=C1c2cc(Br)ccc2OCC1c1ccccc1 (racemic) | 29 |
| Cc1ccc(C2COc3ccccc3C2=O)cc1 (racemic) | 41 |
| O=C1c2ccccc2OCC1c1ccccc1 (racemic) [ISOFLAVANONE] | 29 |
| O=C1c2cc(F)ccc2OCC1c1ccccc1 (racemic) | 32 |
| O=C1c2ccccc2OCC1c1ccsc1 (racemic) | 30 |
| COc1ccccc1C1COc2ccccc2C1=O (racemic) | 97 |

The remaining lines, values ahead:

| IC50 [µM] | SMILES |
| --- | --- |
| 20 | O=C1c2c(ccc3ccccc23)OCC1c1ccccc1 (racemic) |
| 20 | Cc1cccc(C2COc3ccccc3C2=O)c1 (racemic) |
| 18 | Cc1ccc2c(c1)OCC(c1ccccc1)C2=O (racemic) |
| 11 | COc1cc(OC)cc(C2COc3ccccc3C2=O)c1 (racemic) |
| 5.8 | O=C1c2ccccc2OCC1c1cccnc1 (racemic) |
| 5.1 | O=C1c2cc(Cl)ccc2OCC1c1ccccc1 (racemic) |
| 2.4 | O=C1c2ccccc2OCC1c1ccc(Oc2ccccc2)cc1 (racemic) |
| 0.26 | COc1ccc2c(c1)C(=O)C(c1ccccc1)CO2 (racemic) |

target: T1, Aromatase; settings: not given

| IC50 [µM] | SMILES |
| --- | --- |
| 170 | O=C1c2ccccc2OC(O)C1c1ccccc1 (centres undefined) |
| ≥ 200 | O=C1c2ccccc2OCC1c1ccc(O)c(O)c1 (centres undefined) |
| 160 | O=C1c2ccccc2OCC1c1ccc(O)cc1 (centres undefined) |
